Results taken from patent publication US8802702B2, “Compounds for reducing drug resistance and uses thereof” (The General Hospital Corporation, priority 2009, dated 2014).
Like-named read-outs stand apart in the source and are kept apart here.

Columns and labels:
SKOV-3TR cells = assay: Reversal of drug resistance, cytotoxicity (MTT) assay in SKOV-3TR; type: cell-based; conditions: anti-cancer drug alone, no NSC23925, read-out: SKOV-3TR IC50
Method: FIGS. 1 (a-b) are graphs that depict the effects of NSC23925 on drug sensitivity in ovarian cancer cells; 1(a) depicts the effects of NSC23925 on sensitive (SKOV-3) and resistant (SKOV-3TR) cells; 1(b) depicts the effects of NSC23925 on sensitive (OVCAR8) and resistant (OVCAR8TR) cells. […] The relative sensitivity of each line to paclitaxel was determined by MTT assay, as described below in the Examples section, 6 days post treatment. […]
Drug cytotoxicity was assessed in vitro using the MTT assay. SKOV-3 and SKOV-3TR cells were used herein. Briefly, 2×10^3 cells per well were plated in 96-well plates in culture medium (RPMI 1640 supplemented with 10% fetal bovine serum and penicillin/streptomycin) containing increasing concentrations of drug. […] The resulting formazan product was dissolved with acid-isopropanol and the absorbance at a wavelength of 490 nm (A490) was read on a SPECTRAmax® Microplate Spectrophotometer (Molecular Devices, Sunnyvale, Calif.). The absorbance values were normalized by assigning the value of the control line in the medium without drug to 1.0 and the value of the no cell control to 0. Experiments were performed in triplicate.

OVCAR8TR cells = assay: Reversal of drug resistance, cytotoxicity (MTT) assay in OVCAR8TR; type: cell-based, human; conditions: anti-cancer drug alone, no NSC23925, read-out: OVCAR8TR IC50
Method: FIGS. 1 (a-b) are graphs that depict the effects of NSC23925 on drug sensitivity in ovarian cancer cells; 1(a) depicts the effects of NSC23925 on sensitive (SKOV-3) and resistant (SKOV-3TR) cells; 1(b) depicts the effects of NSC23925 on sensitive (OVCAR8) and resistant (OVCAR8TR) cells. Cells were treated with the paclitaxel and NSC23925 in RPMI1640 complete media at the indicated concentrations. The relative sensitivity of each line to paclitaxel was determined by MTT assay, as described below in the Examples section, 6 days post treatment. A: Reversal of paclitaxel resistance by NSC23925 in SKOV-3TR cells. B: Reversal of paclitaxel resistance by NSC23925 in OVCAR8TR cells.
Drug cytotoxicity was assessed in vitro using the MTT assay. SKOV-3 and SKOV-3TR cells were used herein. Briefly, 2×10^3 cells per well were plated in 96-well plates in culture medium (RPMI 1640 supplemented with 10% fetal bovine serum and penicillin/streptomycin) containing increasing concentrations of drug. After 7 days of culture, 10 μl MTT (5 mg/ml in PBS, obtained from Sigma) were added to each well and the plates were incubated for 4 h. The resulting formazan product was dissolved with acid-isopropanol and the absorbance at a wavelength of 490 nm (A490) was read on a SPECTRAmax® Microplate Spectrophotometer (Molecular Devices, Sunnyvale, Calif.). The absorbance values were normalized by assigning the value of the control line in the medium without drug to 1.0 and the value of the no cell control to 0. Experiments were performed in triplicate.

KHOSR2 cells = assay: Reversal of drug resistance, cytotoxicity assay in KHOSR2; type: cell-based, human; conditions: anti-cancer drug alone, no NSC23925, read-out: KHOSR2 IC50
[1] = background statement; cited from earlier work

| Compound | IC50 (SKOV-3TR cells; Homo sapiens, SKOV3TR, 144 h) [nM] | IC50 (OVCAR8TR cells; Homo sapiens, 144 h) [nM] | IC50 (KHOSR2 cells; Homo sapiens) [nM] | Reported toxicity / side effects at doses used to modify drug resistance [1] | IC50 (SKOV-3TR cells) [nM] | IC50 (OVCAR8TR cells) [nM] | IC50 (KHOSR2 cells) [nM] |
| --- | --- | --- | --- | --- | --- | --- | --- |
| COc1cccc2c1C(=O)c1c(O)c3c(c(O)c1C2=O)C[C@@](O)(C(=O)CO)C[C@@H]3O[C@H]1C[C@H](N)[C@H](O)[C@H](C)O1 [Doxorubicin, reference compound] | 22340 ± 200 | 27620 ± 256 | 10300 ± 566 | – | – | – | – |
| COc1cc2c(cc1O)CCN[C@]21CS[C@@H]2c3c(OC(C)=O)c(C)c4c(c3[C@H](COC1=O)N1[C@@H]2[C@H]2c3c(cc(C)c(OC)c3O)C[C@@H]([C@@H]1O)N2C)OCO4 [ET-743, reference compound] | 4 ± 2 | 6 ± 2 | 175 ± 25 | – | – | – | – |
| C/C=C/C[C@@H](C)C(=O)[C@H]1C(=O)N[C@@H](C(C)C)C(=O)N(C)CC(=O)N(C)[C@@H](CC(C)C)C(=O)N[C@@H](C(C)C)C(=O)N(C)[C@@H](CC(C)C)C(=O)N[C@@H](C)C(=O)N[C@H](C)C(=O)N(C)[C@@H](CC(C)C)C(=O)N(C)[C@@H](CC(C)C)C(=O)N(C)[C@@H](C(C)C)C(=O)N1C [PSC 833] | – | – | – | cerebellar ataxia and hyperbilirubinemia toxicities | – | – | – |
| CC(=O)O[C@H]1C(=O)[C@@]2(C)[C@H]([C@H](OC(=O)c3ccccc3)[C@]3(O)C[C@H](OC(=O)[C@H](O)[C@@H](NC(=O)c4ccccc4)c4ccccc4)C(C)=C1C3(C)C)[C@]1(OC(C)=O)CO[C@@H]1C[C@@H]2O [Paclitaxel, reference compound] | 310 ± 21 | 340 ± 32 | 210 ± 23 | – | – | – | – |
| COc1c(C)cc2c(c1O)[C@@H]1[C@@H]3Cc4c(OC(C)=O)c(C)c5c(c4[C@H](CNC(=O)/C=C/c4cccc(C(F)(F)F)c4)N3[C@@H](O)[C@H](C2)N1C)OCO5 [PM00104, reference compound] | – | – | – | – | 6 ± 1 | 8 ± 2 | 143 ± 45 |
